In brackets after ≈: the same amount, converted by molar mass.
Columns and labels:
Type in all cases: functional
[1] = test system: Mycobacterium tuberculosis; experiment: Antimycobacterial activity against INH-resistant Mycobacterium tuberculosis by agar dilution method
[2] = test system: Mycobacterium tuberculosis; experiment: Antimycobacterial activity against INH-resistant Mycobacterium tuberculosis by agar dilution method above 6.25 ug/ml
[3] = test system: Mycobacterium tuberculosis; experiment: Antimycobacterial activity against INH-resistant Mycobacterium tuberculosis by agar dilution method at 6.25 ug/ml

## COc1cc(C2=NN(C(=O)COc3cccc4ccccc34)C(c3ccc(O)cc3)C2)c(C)cc1OCC(=O)O (stereo not drawn)
[1]
  MIC: > 6.25 µg/mL
[2]
  Inhibition: 58%

## COc1cc(C2=NN(C(=O)COc3ccccc3)C(c3ccc(O)cc3)C2)c(C)cc1OCC(=O)O (stereo not drawn)
[3]
  inhibition at 6.25 µg/mL: 99%
[1]
  MIC: 0.64 µg/mL (≈ 1.3 µM)

## COc1cc(C2=NN(C(=O)c3ccccc3)C(c3ccc(O)cc3)C2)c(C)cc1OCC(=O)O (stereo not drawn)
[1]
  MIC: > 6.25 µg/mL
[2]
  Inhibition: 72%

## COc1cc(C2=NN(C(=O)COc3cccc4ccccc34)C(Cc3ccccc3)C2)c(C)cc1OCC(=O)O (stereo not drawn)
[1]
  MIC: > 6.25 µg/mL
[2]
  Inhibition: 20%

## COc1cc(C2=NN(C(=O)Cc3ccccc3)C3CCCC23)c(C)cc1OCC(=O)O (stereo not drawn)
[1]
  MIC: > 6.25 µg/mL
[2]
  Inhibition: 24%

## COc1cc(C2=NN(C(=O)c3ccccc3)C(Cc3ccccc3)C2)c(C)cc1OCC(=O)O (stereo not drawn)
[1]
  MIC: > 6.25 µg/mL
[2]
  Inhibition: 18%

## COc1cc(C2=NN(C(=O)COc3ccccc3)C3CCCC23)c(C)cc1OCC(=O)O (stereo not drawn)
[1]
  MIC: > 6.25 µg/mL
[2]
  Inhibition: 85%

## COc1cc(C2=NN(C(=O)c3ccccc3)C3CCCC23)c(C)cc1OCC(=O)O (stereo not drawn)
[1]
  MIC: > 6.25 µg/mL
[2]
  Inhibition: 42%

## COc1cc(C2=NN(C(=O)Cc3ccccc3)C(Cc3ccccc3)C2)c(C)cc1OCC(=O)O (stereo not drawn)
[1]
  MIC: > 6.25 µg/mL
[2]
  Inhibition: 34%

## COc1cc(C2=NN(C(=O)c3ccc([N+](=O)[O-])cc3)C(c3ccc(O)cc3)C2)c(C)cc1OCC(=O)O (stereo not drawn)
[1]
  MIC: 6.25 µg/mL (≈ 12.4 µM)
[2]
  Inhibition: 70%

## COc1cc(C2=NN(C(=O)c3ccc([N+](=O)[O-])cc3)C3CCCC23)c(C)cc1OCC(=O)O (stereo not drawn)
[1]
  MIC: > 6.25 µg/mL
[2]
  Inhibition: 30%

## COc1cc(C2=NN(C(=O)COc3ccc4ccccc4c3)C(c3ccc(O)cc3)C2)c(C)cc1OCC(=O)O (stereo not drawn)
[3]
  inhibition at 6.25 µg/mL: 99%
[1]
  MIC: 0.7 µg/mL (≈ 1.29 µM)

## COc1cc(C2=NN(C(=O)c3ccc([N+](=O)[O-])cc3)C(Cc3ccccc3)C2)c(C)cc1OCC(=O)O (stereo not drawn)
[1]
  MIC: > 6.25 µg/mL
[2]
  Inhibition: 50%

## COc1cc(C2=NN(C(=O)COc3ccc4ccccc4c3)C3CCCC23)c(C)cc1OCC(=O)O (stereo not drawn)
[1]
  MIC: 6.25 µg/mL (≈ 12.8 µM)
[2]
  Inhibition: 94%

## COc1cc(C2=NN(C(=O)COc3ccc4ccccc4c3)C(Cc3ccccc3)C2)c(C)cc1OCC(=O)O (stereo not drawn)
[3]
  inhibition at 6.25 µg/mL: 90%
[1]
  MIC: 0.94 µg/mL (≈ 1.75 µM)

## COc1cc(C2=NN(C(=O)COc3ccccc3)C(Cc3ccccc3)C2)c(C)cc1OCC(=O)O (stereo not drawn)
[3]
  inhibition at 6.25 µg/mL: 92%
[1]
  MIC: > 6.25 µg/mL

## NNC(=O)c1ccncc1 [ISONIAZID]
[3]
  inhibition at 6.25 µg/mL: 90%
[1]
  MIC: 1.56 µg/mL (≈ 11.4 µM)

## COc1cc(C2=NN(C(=O)Cc3ccccc3)C(c3ccc(O)cc3)C2)c(C)cc1OCC(=O)O (stereo not drawn)
[1]
  MIC: > 6.25 µg/mL
[2]
  Inhibition: 22%

## COc1cc(C2=NN(C(=O)COc3cccc4ccccc34)C3CCCC23)c(C)cc1OCC(=O)O (stereo not drawn)
[1]
  MIC: > 6.25 µg/mL
[2]
  Inhibition: 50%

Reference: ChEMBL document CHEMBL1146905, “Synthesis and evaluation of phenoxy acetic acid derivatives as [corrected] anti-mycobacterial agents” (2006)
